Source: the CheMixHub viscosity set
± gives the uncertainty stated by the source.

Assay: xn = mol fraction of the nth substance listed

[Br-].[Na+] + OCCO
101 kPa, x1 = 0.142
Settings	viscosity [mPa·s]
303 K	39.03 ± 0.57
313 K	25.16 ± 0.35
323 K	17.24 ± 0.23

NCCO + CC(C)O
viscosity [mPa·s], 100 kPa
Settings	x1 = 0.1	x1 = 0.2	x1 = 0.3	x1 = 0.4	x1 = 0.5	x1 = 0.6	x1 = 0.7	x1 = 0.8	x1 = 0.9
303.15 K	2.11 ± 0.04	2.53 ± 0.04	3.08 ± 0.05	3.86 ± 0.07	4.9 ± 0.08	6.12 ± 0.11	7.7 ± 0.13	9.55 ± 0.17	11.9 ± 0.2
313.15 K	1.63 ± 0.03	1.92 ± 0.03	2.31 ± 0.04	2.88 ± 0.05	3.55 ± 0.06	4.35 ± 0.08	5.37 ± 0.09	6.54 ± 0.12	7.97 ± 0.14
323.15 K	1.27 ± 0.02	1.49 ± 0.03	1.78 ± 0.03	2.21 ± 0.04	2.65 ± 0.05	3.22 ± 0.06	3.89 ± 0.07	4.69 ± 0.08	5.64 ± 0.1

NCCO + CCCO
viscosity [mPa·s], 101.3 kPa
Settings	x1 = 0.0998	x1 = 0.1999	x1 = 0.3005	x1 = 0.4	x1 = 0.5	x1 = 0.6	x1 = 0.7	x1 = 0.8	x1 = 0.9
303.15 K	2.09 ± 0.04	2.56 ± 0.04	3.17 ± 0.05	3.97 ± 0.07	4.94 ± 0.09	6.22 ± 0.11	7.7 ± 0.13	9.64 ± 0.17	12 ± 0.2
313.15 K	1.66 ± 0.03	2 ± 0.03	2.42 ± 0.04	2.97 ± 0.05	3.63 ± 0.06	4.44 ± 0.08	5.41 ± 0.09	6.62 ± 0.12	8.11 ± 0.14
323.15 K	1.35 ± 0.02	1.59 ± 0.03	1.92 ± 0.03	2.3 ± 0.04	2.75 ± 0.05	3.31 ± 0.06	3.93 ± 0.07	4.73 ± 0.08	5.69 ± 0.1

c1ccc(-c2ccccc2)cc1 + c1ccccc1
298.15 K, 101 kPa
Settings	viscosity [mPa·s]
x1 = 0.1006	0.7585 ± 0.02
x1 = 0.1824	0.9014 ± 0.024
x1 = 0.3638	1.298 ± 0.034
